Results reported in patent publication US6316439A, “Galanthamine derivatives as acetylcholinesterase inhibitors” (priority 1993, dated 2001).
Where a name gives a salt, the structure may show the parent alone. Read-outs that look alike come from different tables or passages of the source.

Legend:
[1] = tested on: mice; assay: Dark Avoidance Assay (SDDA), reversal of scopolamine induced memory deficit; assay type: in vivo; conditions: s.c., retest after 24 hours
Experimental: This utility can also be ascertained by determining the ability of these compounds to restore cholinergically deficient memory in the Dark Avoidance Assay. In this assay mice are tested for their ability to remember an unpleasant stimulus for a period of 24 hours. A mouse is placed in a chamber that contains a dark compartment; a strong incandescent light drives it to the dark compartment, where an electric shock is administered through metal plates on the floor. The animal is removed from the testing apparatus and tested again, 24 hours later, for the ability to remember the electric shock.
If scopolamine, an anticholinergic that is known to cause memory impairment, is administered before an animal's initial exposure to the test chamber, the animal re-enters the dark compartment shortly after being placed in the test chamber 24 hours later. This effect of scopolamine is blocked by an active test compounds, resulting in a greater interval before re-entry into the dark compartment.
The test results are expressed as the percent of a group of animals in which the effect of scopolamine is blocked, as manifested by an increased interval between being placed in the test chamber and reentering the dark compartment. Results of Dark Avoidance Assay for some of the compounds of this invention are presented in Table II along with a result for a reference compounds.

[2] = target: acetylcholinesterase (Homo sapiens, UniProt P22303); assay: Acetylcholinesterase Inhibition Assay (photometric method of Ellman et al.); assay type: biochemical
Sequence of acetylcholinesterase (P22303 32-614): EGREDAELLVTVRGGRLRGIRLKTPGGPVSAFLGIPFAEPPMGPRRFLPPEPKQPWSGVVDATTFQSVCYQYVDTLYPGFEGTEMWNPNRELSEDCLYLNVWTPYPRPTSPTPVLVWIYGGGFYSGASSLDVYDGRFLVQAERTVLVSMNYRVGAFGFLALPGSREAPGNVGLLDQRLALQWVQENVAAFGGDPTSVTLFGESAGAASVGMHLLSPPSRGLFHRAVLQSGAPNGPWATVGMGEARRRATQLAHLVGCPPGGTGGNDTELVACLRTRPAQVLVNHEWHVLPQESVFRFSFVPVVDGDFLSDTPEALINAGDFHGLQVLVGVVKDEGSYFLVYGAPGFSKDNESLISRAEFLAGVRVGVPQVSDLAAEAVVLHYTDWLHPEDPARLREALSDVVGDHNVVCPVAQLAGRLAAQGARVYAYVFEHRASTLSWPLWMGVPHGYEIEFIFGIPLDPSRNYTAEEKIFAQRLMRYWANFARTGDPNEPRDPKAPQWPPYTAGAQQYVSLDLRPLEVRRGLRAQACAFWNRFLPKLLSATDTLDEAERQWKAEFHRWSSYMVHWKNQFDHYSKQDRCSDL

Compound | Percent of Animals with Scopolamine Induced Memory Deficit Reversal ([1]; 0.10 mg/kg) | other results
CC(C)OC(=O)OC1C=CC23CCN(C)Cc4ccc(OC(=O)C(C)(C)C)c(c42)OC3C1.Cl.O (stereo not drawn) [6-O-Demethyl-3-O-(2-propoxy-carbonyl)-6-O-(t-butylcarbonyl)-galanthamine hydrochloride hydrate] | 53% of Animals | –
CC(C)OC(=O)Oc1ccc2c3c1O[C@H]1C[C@@H](O)C=C[C@@]31CCN(C)C2 [6-O-Demethyl-6-O-(2-propoxycarbonyl)galanthamine] | – | IC50 [2]: 1610 nM
CN1CC[C@@]23C=C[C@H](O)C[C@@H]2Oc2c(OC(=O)C(C)(C)C)ccc(c23)C1 [6-O-Demethyl-6-O-(trimethylacetyl)-galanthamine] | 53% of Animals | –
CN1CC[C@@]23C=C[C@H](O)C[C@@H]2Oc2c(OC(=O)C(C)(C)C)ccc(c23)C1 [Example 3, 6-O-Demethyl-6-O-(t-butylcarbonyl)galanthamine hydrochloride] | – | IC50 ([2]; photometric method of Ellman et al., read-out: IC50 CHE I): 2690 nM
CC(C)OC(=O)Oc1ccc2c3c1O[C@H]1C[C@@H](O)C=C[C@@]31CCN(C)C2 [Example 9, 6-O-Demethyl-6-O-(prop-2-yl-oxycarbonyl)galanthamine hydrochloride] | 33% of Animals | –
Nc1c2c(nc3ccccc13)CCCC2 [Tacrine, reference compound] | – | Percent of Animals with Scopolamine Induced Memory Deficit Reversal ([1]; 0.31 mg/kg): 33% of Animals
